Patent US20210386721A1, “SUBSTITUTED PHENYLPROPENYL PYRIDINE DERIVATIVES, THEIR PREPARATION AND PHARMACEUTICAL APPLICATIONS” (SHANGHAI HAIYAN PHARMACEUTICAL TECHNOLOGY CO., LTD., priority 2019, published 2021)

Columns and labels:
PD-1/PD-L1 = target: T1, PD-1/PD-L1 (Homo sapiens, UniProt Q9NZQ7); assay: PD-1/PD-L1 binding assay (HTRF, PPI-HTRF); details: HTRF PD1/PD-L1 binding assay kit; 10 nM Tag1-PD-L1; 25° C.
T1 construct: purchased Cisbio 63ADK000CPDPEB
Outline: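 HTRF binding assay: compound was mixed with tagged proteins at final concentrations of 10 nM Tag1-PD-L1 and 2 nM PD1 for 15 min at 25 °C. Anti-Tag1-Eu³⁺ and anti-Tag2-XL665 antibodies were then added for 16 h at 25 °C. IC50 was derived from the 665/620 nm emission ratio.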

[1] = tested on: Jurkat T(PD1 Luc-)/CHOK1(PDL-1); assay: Jurkat T(PD1 Luc-)/CHOK1(PDL-1) cell experiment (luciferase reporter); format: cell-based; details: CHO/PD-L1-OKT3 cells co-cultured with Jurkat/PD1-NFAT-Luc cells for 6 hours; Bio-Glo luciferase signal
Outline: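 CHO/PD-L1-OKT3 cells plated 24 h at 37 °C, then compound in DMSO (1 uM final) added together with Jurkat/PD1-NFAT-Luc cells and co-cultured 6 h. Luciferase signal read with Bio-Glo; EC50 by non-linear regression.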

T1 sequence (Q9NZQ7 19-238 limits assumed): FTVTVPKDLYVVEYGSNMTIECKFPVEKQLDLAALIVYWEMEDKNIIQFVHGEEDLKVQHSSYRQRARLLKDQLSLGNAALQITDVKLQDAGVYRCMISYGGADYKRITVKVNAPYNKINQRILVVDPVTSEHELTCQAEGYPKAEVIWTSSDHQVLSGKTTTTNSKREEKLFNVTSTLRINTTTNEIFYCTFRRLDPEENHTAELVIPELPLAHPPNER

SMILES	IC50 (PD-1/PD-L1) [nM]	EC50 [1] [nM]
COc1cc(/C=C/c2cccc(-c3cccc(-c4nc5c(c(OC)n4)CN(C[C@@H]4CCC(=O)N4)CC5)c3C)c2C)c(C(F)(F)F)cc1CN1CC[C@@H](C(=O)O)C1 [Z-60, (R)-1-(2-methoxy-4-((E)-2-(3′-(4-methoxy-6-(((S)-5-oxopyrrolidin-2-yl)methyl)-5,6,7,8-tetrahydropyrido[4,3-d]pyrimidin-2-yl)-2,2′-dimethyl-[1,1′-biphenyl]-3-yl)vinyl)-5-(trifluoromethyl)benzyl) pyrrolidine-3-carboxylic Acid]	2	79
Cc1cc(/C=C/c2cccc(-c3cccc(NC(=O)c4ccc(CN5CC[C@@H](O)C5)cn4)c3C)c2C)c(Cl)cc1CN1CC[C@@H](C(=O)O)C1 [Z-86]	1	38
COc1cc(/C=C/c2cccc(-c3cccc(NC(=O)c4ccc(CN5CC[C@@H](O)C5)cn4)c3Cl)c2C)c(C(F)(F)F)cc1CN1CCC[C@H]1C(=O)O [Z-92]	1	6
COc1cc(/C=C/c2cccc(-c3cccc(NC(=O)c4ccc(CN5CC[C@@H](O)C5)cn4)c3Cl)c2C#N)c(C(F)(F)F)cc1CN1CC[C@@H](C(=O)O)C1 [Z-95]	< 1	4
Cc1cc(/C=C/c2cccc(-c3cccc(Nc4nccc5cc(CN6CC[C@@H](O)C6)cnc45)c3C)c2C)c(C(F)(F)F)cc1CN1CC[C@@H](C(=O)O)C1 [Z-9]	1	48
COc1cc(/C=C/c2cccc(-c3cccc(-c4nc5cc(CN6CC[C@@H](O)C6)cc(C#N)c5o4)c3C)c2C)c(C(F)(F)F)cc1CN1CCCC[C@H]1C(=O)O [Z-26]	4	39
Cc1cc(/C=C/c2nccc(-c3cccc(NC(=O)c4ccc(CN5CC[C@@H](O)C5)cn4)c3C)c2C#N)c(C(F)(F)F)cc1CN1CC[C@@H](C(=O)O)C1 [Z-101]	1	122
COc1cc(/C=C/c2cccc(-c3cccc(NC(=O)c4ccc(CN5CC[C@@H](O)C5)cn4)c3Cl)c2Cl)c(C(F)(F)F)cc1CN1CC[C@@H](C(=O)O)C1 [Z-93]	2	8
COc1cc(/C=C/c2cccc(-c3cccc(NC(=O)c4ccc(CN5CC[C@@H](O)C5)cn4)c3C)c2C)c(C(F)(F)F)cc1CN1CCC(C)(C(=O)O)C1 (some centres unmarked) [Z-103]	1	19
COc1cc(/C=C/c2cccc(-c3cccc(NC(=O)c4ccc(CNCCS(C)(=N)=O)cn4)c3C)c2C)c(C(F)(F)F)cc1CN1CC[C@@H](C(=O)O)C1 (stereo partly drawn) [Z-109, (3R)-1-(4-((E)-2-(2,2′-dimethyl-3′-(5-(((2-(S-methylsulfonimidoyl)ethyl)amino)methyl)picolinamido)-[1,1′-biphenyl]-3-yl)vinyl)-2-methoxy-5-(trifluoromethyl)benzyl)pyrrolidine-3-carboxylic Acid]	1	121
COc1cc(C(=O)Nc2cccc(-c3cccc(/C=C/c4cc(OC)c(CN5CC[C@@H](C(=O)O)C5)cc4C(F)(F)F)c3C)c2C)ncc1CN1CC(CO)C1 [Z-114, (R,E)-1-(4-(2-(3′-(5-((3-(hydroxymethyl)azetidin-1-yl)methyl)-4-methoxypicolinamido)-2,2′-dimethyl-[1,1′-biphenyl]-3-yl)vinyl)-2-methoxy-5-(trifluoromethyl)benzyl)pyrrolidine-3-carboxylic Acid]	1	54
CNc1cc(C(=O)Nc2cccc(-c3cccc(/C=C/c4cc(OC)c(CN5CCC(C(=O)O)C5)cc4C(F)(F)F)c3C)c2C)ncc1CN1CC[C@@H](O)C1 (some centres unmarked) [Z-141]	≤ 1	74
Cc1cc(/C=C/c2nccc(-c3cccc(-c4nc5cc(CN6CC[C@@H](O)C6)cc(C#N)c5o4)c3C)c2C#N)c(C(F)(F)F)cc1CN1CC[C@@H](C(=O)O)C1 [Z-51]	1	56

Now from value to molecule, other results behind:

IC50 (PD-1/PD-L1) [nM]	SMILES	EC50 [1] [nM]
1	COc1cc(/C=C/c2cccc(-c3cccc(NC(=O)c4nc5c(n4C)CCN([C@H]4CC[C@@H](O)CC4)C5)c3C)c2C)c(C(F)(F)F)cc1CN1CC[C@@H](C(=O)O)C1 [Z-131, (R)-1-(4-((E)-2-(3′-(5-((1s,4s)-4-hydroxycyclohexyl)-1-methyl-4,5,6,7-tetrahydro-1H-imidazo[4,5-c]pyridine-2-carboxamido)-2,2′-dimethyl-[1,1′-biphenyl]-3-yl)vinyl)-2-methoxy-5-(trifluoromethyl)benzyl)pyrrolidine-3-carboxylic Acid]	124
2	COc1cc(/C=C/c2cccc(-c3cccc(-c4nc5cc(CN6CC[C@@H](O)C6)cc(C#N)c5o4)c3C)c2C)c(C(F)(F)F)cc1CN1CCC[C@H]1C(=O)O [Z-36, (4-((E)-2-(3′-(7-cyano-5-(((R)-3-hydroxypyrrolidin-1-yl)methyl)benzo[d]oxazol-2-yl)-2,2′-dimethyl-[1,1′-biphenyl]-3-yl)vinyl)-2-methoxy-5-(trifluoromethyl)benzyl)-L-proline]	50
≤ 1	COc1cc(C(=O)Nc2cccc(-c3cccc(/C=C/c4cc(OC)c(CN5CC[C@@H](O)C5)cc4C(F)(F)F)c3C)c2C)ncc1CN1CC[C@@H](O)C1 [Z-135]	44
1	COc1cc(/C=C/c2cccc(-c3cccc(NC(=O)c4ccc(CN5CC[C@@H](O)C5)cn4)c3C#N)c2C)c(C(F)(F)F)cc1CN1CC[C@@H](C(=O)O)C1 [Z-105]	14
1	COc1cc(/C=C/c2cccc(-c3cccc(Nc4nccc5cc(CN6CC[C@@H](O)C6)cnc45)c3C)c2C)c(C(F)(F)F)cc1CN1CCC[C@H]1C(=O)O [Z-11]	137
1	COc1cc(/C=C/c2cccc(-c3cccc(-c4nc5cc(CNCCO)cc(C#N)c5o4)c3C)c2C)c(C(F)(F)F)cc1CN1CCCC[C@H]1C(=O)O [Z-40]	108
